Values after ≈ are worked out from the molar mass of the structure shown.
System: HCT-116
Experiment: Cytotoxicity against human HCT116 after 72 hrs by MTS assay
Format: functional, cell-based
Conditions: HCT-116, 72 h

`CC1=C(C#C/C(=C/C=C/C(C)=C/C=C/C=C(C)/C=C/C=C(\C)C(=O)/C=C2\C(C)(C)C[C@H](O)C[C@@]2(C)O)CO)C(C)(C)C[C@H](O)C1` showed an IC50 of 4.38 µg/mL (≈ 7.12 µM).
